Source: patent US8299296B2, “Spiro compounds and pharmaceutical use thereof” (Japan Tobacco Inc., priority 2007, dated 2012)

Molecular target: T1, human GPR40 (Homo sapiens, UniProt O14842)
T1 construct: expressed in transfected cells
Test: Ca2+ mobilization (FLIPR) in a stable GPR40-expressing cell; GPR40 agonist activity
Type: cell-based
Conditions: compound concentration corresponding to 50% PosiC, 100% = intracellular calcium level induced by 80 μM palmitic acid
Method: Evaluation of effect of test compounds on Ca^2+ mobilization by using a stable GPR40-expressing cell A stable human GPR40-expressing HEK293 cell was used. A cell suspension was prepared such that the above-mentioned cells were present at 6×10^5 cells/mL in a cell culture medium (D-MEM (Nikken Bio Medical Laboratory) supplemented with 10% (v/v) fetal bovine serum (Biowest) and 1% (v/v) penicillin-streptomycin solution (Invitrogen)). The cell suspension was plated in a 384-well plate (poly-D-lysine coated plate; Falcon) in a volume of 25 μl/well, and the plate was incubated at 37° C. in an atmosphere of 5% CO2 overnight. Each test compound was added to the cell at each concentration as below, and then the change in intracellular calcium level was measured by FLIPR^TETRA (Molecular Devices). Before the FLIPR assay, the following preparative solutions were prepared. First, an assay buffer was prepared for use in the preparation of a fluorescent dye solution and a diluent buffer solution. The assay buffer was prepared by adding 1M HEPES solution (Invitrogen) to Hanks' Balanced Salt Solution (Invitrogen), followed by adjusting the pH to 7.4 with 1M NaOH (Nacalai Tesque). Next, the fluorescent dye solution and the diluent buffer solution were prepared. The fluorescent dye solution was prepared in accordance with the instruction manual attached to Fluo-4NW calcium assay kit (Invitrogen), followed by addition of bovine serum albumin (Sigma) to a final concentration of 0.1% (w/v). The diluent buffer solution was prepared by adding bovine serum albumin (Sigma) to the assay buffer to give a final concentration of 0.1% (w/v). After removing a medium supernatant from the cell culture plate incubated overnight, the fluorescent dye solution was added to the plate in a volume of 25 μl/well. The plate was incubated at 37° C. in an atmosphere of 5% CO2 for 90 minutes to promote the fluorescent dye uptake in the cell. Meanwhile, the test compounds (i.e., the compounds prepared in Examples) dissolved in dimethyl sulfoxide (DMSO; Nacalai Tesque) were diluted with the diluent buffer solution, to prepare each compound solution at each concentration. In addition, a palmitic acid solution was prepared as a positive control solution (hereinafter abbreviated as PosiC). A 40 μl aliquot of each sample solution prepared as above was added to each well of a 384-well polypropylene plate to prepare a compound plate. Finally, after the sufficient uptake of the fluorescent dye in the cell, the cell plate and the compound plate were set to FLIPR^TETRA. After the above pretreatment, the change in intracellular calcium level was measured by FLIPR^TETRA upon addition of 25 μl of each test compound solution at each concentration. The GPR40 agonist activity of each test compound at each concentration was determined as a relative activity level (% PosiC) with the intracellular calcium level induced by 80 μM palmitic acid (a GPR40 agonist) set to 100%. Next, each compound concentration corresponding to 50% PosiC was calculated based on the % PosiC value, to compare between agonist activities of the test compounds. In the tables, “++++” indicates 0.01 μM or more but less than 0.1 μM, “+++” indicates 0.1 μM or more but less than 1 μM, “++” indicates 1 μM or more but less than 10 μM, and “+” indicates 10 μM or more for 50% posiC value. In the tables, “N.T.” indicates “not tested”.

T1 sequence (O14842 whole entry): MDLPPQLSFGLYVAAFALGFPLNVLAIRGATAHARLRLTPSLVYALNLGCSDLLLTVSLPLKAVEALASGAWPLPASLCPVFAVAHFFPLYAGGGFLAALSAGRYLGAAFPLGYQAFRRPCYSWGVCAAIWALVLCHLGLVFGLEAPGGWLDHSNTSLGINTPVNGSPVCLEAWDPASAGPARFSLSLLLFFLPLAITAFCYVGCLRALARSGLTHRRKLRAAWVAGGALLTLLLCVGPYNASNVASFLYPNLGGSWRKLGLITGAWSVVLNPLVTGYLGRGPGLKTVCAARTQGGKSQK

Structure (SMILES)	EC50
CC#C[C@@H](CC(=O)O)c1ccc(OCC2CCCC3(CCCCC3)C2)cc1 (mixture of isomers) [Example 28, (3S)-3-[4-(spiro[5.5]undec-2-ylmethoxy)-phenyl]-hex-4-ynoic acid]	0.01 to 0.1 µM
Cn1nnnc1C(CC(=O)O)c1ccc(OCC2CCCC3(CCCCC3)C2)cc1 (racemic) [Example 40, 3-(1-methyl-1H-tetrazol-5-yl)-3-[4-(spiro[5.5]undec-2-ylmethoxy)-phenyl]-propionic acid]	0.01 to 0.1 µM
CCOC(CC(=O)O)c1ccc(OCC2=CC3(CCCCC3)CCC2)cc1 (racemic) [Example 41, 3-ethoxy-3-[4-(spiro[5.5]undec-1-en-2-ylmethoxy)-phenyl]-propionic acid]	0.01 to 0.1 µM
O=C(O)CCc1ccc(OCC2CCCC3(CCCCC3)C2)cc1 (racemic) [Example 46, 3-[4-(spiro[5.5]undec-2-ylmethoxy)-phenyl]-propionic acid]	1 to 10 µM
CC1(C)CCCC2(CCCC(COc3ccc(CCC(=O)O)cc3)C2)C1 (racemic) [Example 48, 3-[4-(8,8-dimethyl-spiro[5.5]undec-2-ylmethoxy)-phenyl]-propionic acid]	1 to 10 µM
CC1=CCCC(C)C12CCCC(COc1ccc(CCC(=O)O)cc1)C2 (racemic) [Example 50, 3-[4-(7,11-dimethyl-spiro[5.5]undec-7-en-2-ylmethoxy)-phenyl]-propionic acid]	0.1 to 1 µM
CC1CCCC(C)C12CCCC(COc1ccc(CCC(=O)O)cc1)C2 (racemic) [Example 51, 3-[4-(7,11-dimethyl-spiro[5.5]undec-2-ylmethoxy)-phenyl]-propionic acid]	1 to 10 µM
O=C(O)CCc1ccc(OCC2CCC3(CCCCC3)C2)cc1 (racemic) [Example 52, 3-[4-(spiro[4.5]dec-2-ylmethoxy)-phenyl]-propionic acid]	1 to 10 µM
CC1(C)C=CC2(CCCC(COc3ccc(CCC(=O)O)cc3)C2)CC1 (racemic) [Example 53, 3-[4-(9,9-dimethyl-spiro[5.5]undec-7-en-2-ylmethoxy)-phenyl]-propionic acid]	1 to 10 µM
O=C(O)CC(c1ccccc1)c1ccc(OCC2CCCC3(CCCCC3)C2)cc1 (racemic) [Example 60, 3-phenyl-3-[4-(spiro[5.5]undec-2-ylmethoxy)-phenyl]-propionic acid]	1 to 10 µM
O=C(O)CCc1ccc(OC2CCCC3(CCCCC3)C2)cc1 (racemic) [Example 61, 3-[4-(spiro[5.5]undec-2-yloxy)-phenyl]-propionic acid]	≥ 10 µM
CNC(=O)C(CC(=O)O)c1ccc(OCC2CCCC3(CCCCC3)C2)cc1 (racemic) [Example 65, N-methyl-3-[4-(spiro[5.5]undec-2-ylmethoxy)-phenyl]-succinamic acid]	1 to 10 µM
O=C1NC(=O)C(Cc2ccc(OCC3CCCC4(CCCCC4)C3)cc2)S1 (racemic) [Example 67, 5-[4-(spiro[5.5]undec-2-ylmethoxy)-benzyl]-thiazolidine-2,4-dione]	≥ 10 µM
CC#C[C@@H](CC(=O)O)c1ccc(OCC2CCCCC23CCCCC3)cc1 (mixture of isomers) [Example 72, (3S)-3-[4-(spiro[5.5]undec-1-ylmethoxy)-phenyl]-hex-4-ynoic acid]	1 to 10 µM
CCOC(CC(=O)O)c1ccc(OCC2CCCC3(CCCCC3)C2)cc1 (racemic) [Example 75, 3-ethoxy-3-[4-(spiro[5.5]undec-2-ylmethoxy)-phenyl]-propionic acid]	0.1 to 1 µM
CCC[C@@H](CC(=O)O)c1ccc(OCC2CCCC3(CCCCC3)C2)cc1 (mixture of isomers) [Example 78, (3S)-3-[4-(spiro[5.5]undec-2-ylmethoxy)-phenyl]-hexanoic acid]	1 to 10 µM
COC(CC(=O)O)c1ccc(OCC2CCCC3(CCCCC3)C2)cc1 (racemic) [Example 80, 3-methoxy-3-[4-(spiro[5.5]undec-2-ylmethoxy)-phenyl]-propionic acid]	1 to 10 µM

The remaining lines, values ahead:

EC50	Structure (SMILES)
0.01 to 0.1 µM	CC#C[C@@H](CC(=O)O)c1ccc(OCC2CCCC3(C=CCCC3(C)C)C2)cc1 (mixture of isomers) [Example 19, (3S)-3-[4-(11,11-dimethyl-spiro[5.5]undec-7-en-2-ylmethoxy)-phenyl]-hex-4-ynoic acid]
≥ 10 µM	O=C(O)CCc1ccc(OCC2CCC3(CCCCCC3)C2)cc1 (racemic) [Example 21, 3-[4-(spiro[4.6]undec-2-ylmethoxy)-phenyl]-propionic acid]
0.1 to 1 µM	CC#C[C@@H](CC(=O)O)c1ccc(OCC2CCC3(CCCC3)C2)cc1 (mixture of isomers) [Example 30, (3S)-3-[4-(spiro[4.4]non-2-ylmethoxy)-phenyl]-hex-4-ynoic acid]
0.1 to 1 µM	CC#CC(CC(=O)O)c1ccc(OCC2CCCC3(CCCCC3)C2)cc1 (racemic) [Example 47, 3-[4-(spiro[5.5]undec-2-ylmethoxy)-phenyl]-hex-4-ynoic acid]
1 to 10 µM	O=C(O)CCc1ccc(OCC2CCCC3(CCCCCC3)C2)cc1 (racemic) [Example 49, 3-[4-(spiro[5.6]dodec-2-ylmethoxy)-phenyl]-propionic acid]
1 to 10 µM	CC1(C)CCC2(CCCC(COc3ccc(CCC(=O)O)cc3)C2)CC1 (racemic) [Example 54, 3-[4-(9,9-dimethyl-spiro[5.5]undec-2-ylmethoxy)-phenyl]-propionic acid]
0.1 to 1 µM	CC1(C)CCC=CC12CCCC(COc1ccc(CCC(=O)O)cc1)C2 (racemic) [Example 55, 3-[4-(11,11-dimethyl-spiro[5.5]undec-7-en-2-ylmethoxy)-phenyl]-propionic acid]
1 to 10 µM	CC1(C)CCCCC12CCCC(COc1ccc(CCC(=O)O)cc1)C2 (racemic) [Example 56, 3-[4-(7,7-dimethyl-spiro[5.5]undec-2-ylmethoxy)-phenyl]-propionic acid]
1 to 10 µM	CC#C[C@H](CC(=O)O)c1ccc(OCC2CCCC3(CCCCC3)C2)cc1 (mixture of isomers) [Example 58, (3R)-3-[4-(spiro[5.5]undec-2-ylmethoxy)-phenyl]-hex-4-ynoic acid]
0.1 to 1 µM	CN(C)C(=O)C(CC(=O)O)c1ccc(OCC2CCCC3(CCCCC3)C2)cc1 (racemic) [Example 59, N,N-dimethyl-3-[4-(spiro[5.5]undec-2-ylmethoxy)-phenyl]-succinamic acid]
≥ 10 µM	O=C(O)CCc1ccc(OCCC2CCCC3(CCCCC3)C2)cc1 (racemic) [Example 62, 3-[4-(2-spiro[5.5]undec-2-yl-ethoxy)-phenyl]-propionic acid]
0.1 to 1 µM	CC#C[C@@H](CC(=O)O)c1ccc(OC2CCCC3(CCCCC3)C2)cc1 (mixture of isomers) [Example 64, (3S)-3-[4-(spiro[5.5]undec-2-yloxy)-phenyl]-hex-4-ynoic acid]
0.1 to 1 µM	O=C(O)CC(c1ccc(OCC2CCCC3(CCCCC3)C2)cc1)c1ncco1 (racemic) [Example 66, 3-oxazol-2-yl-3-[4-(spiro[5.5]undec-2-ylmethoxy)-phenyl]-propionic acid]
1 to 10 µM	CC#C[C@H](c1ccc(OCC2CCCC3(CCCCC3)C2)cc1)C1SC(=O)NC1=O (mixture of isomers) [Example 68, 5-{(1S)-1-[4-(spiro[5.5]undec-2-ylmethoxy)-phenyl]-but-2-ynyl}-thiazolidine-2,4-dione]
1 to 10 µM	O=C(O)CC(CO)c1ccc(OCC2CCCC3(CCCCC3)C2)cc1 (racemic) [Example 69, 4-hydroxy-3-[4-(spiro[5.5]undec-2-ylmethoxy)-phenyl]-butyric acid]
0.1 to 1 µM	CC#C[C@@H](CC(=O)O)c1ccc(OCC2CCCC3(CCCCC3)C2O)cc1 (mixture of isomers) [Example 70, (3S)-3-[4-(1-hydroxy-spiro[5.5]undec-2-ylmethoxy)-phenyl]-hex-4-ynoic acid]
1 to 10 µM	COCC(CC(=O)O)c1ccc(OCC2CCCC3(CCCCC3)C2)cc1 (racemic) [Example 71, 4-methoxy-3-[4-(spiro[5.5]undec-2-ylmethoxy)-phenyl]-butyric acid]
0.1 to 1 µM	C/C=C\[C@@H](CC(=O)O)c1ccc(OCC2CCCC3(CCCCC3)C2)cc1 (mixture of isomers) [Example 77, (Z)-(3R)-3-[4-(spiro[5.5]undec-2-ylmethoxy)-phenyl]-hex-4-enoic acid]
